Consider ten compounds from ChEMBL document CHEMBL5625248, “Identification of unique indolylcyanoethylenyl sulfonylanilines as novel structural scaffolds of potential antibacterial agents” (Eur J Med Chem, 2023).

Common to all, as to assay type: functional
Experiment [1] concerns Staphylococcus aureus. The experiment can be described thus: Antibacterial activity against Staphylococcus aureus assessed as inhibition of bacterial growth incubated for 18 hrs by two fold broth microdilution assay. Background: Dilution methods test growth across graded concentrations, often in twofold steps.
In experiment [2] the test system is Enterococcus faecalis. Nature of the experiment: Antibacterial activity against Enterococcus faecalis assessed as inhibition of bacterial growth incubated for 18 hrs by two fold broth microdilution assay.
Experiment [3] has as its system Escherichia coli. Nature of the experiment: Antibacterial activity against Escherichia coli ATCC 25922 assessed as inhibition of bacterial growth incubated for 18 hrs by two fold broth microdilution assay.
The test system of experiment [4] is Klebsiella pneumoniae. Nature of the experiment: Antibacterial activity against Klebsiella pneumoniae assessed as inhibition of bacterial growth incubated for 18 hrs by two fold broth microdilution assay.
Experiment [5] has as its system Escherichia coli. Nature of the experiment: Antibacterial activity against Escherichia coli assessed as inhibition of bacterial growth incubated for 18 hrs by two fold broth microdilution assay.
Experiment [6] relates to Staphylococcus aureus. The experiment can be described thus: Antibacterial activity against methicilin-resistant Staphylococcus aureus N315 assessed as inhibition of bacterial growth incubated for 18 hrs by two fold broth microdilution assay.
For experiment [7], the system named is Pseudomonas aeruginosa. The experiment can be described thus: Antibacterial activity against Pseudomonas aeruginosa assessed as inhibition of bacterial growth incubated for 18 hrs by two fold broth microdilution assay.
For experiment [8], the system named is Staphylococcus aureus. The experiment can be described thus: Antibacterial activity against Staphylococcus aureus ATCC 29213 assessed as inhibition of bacterial growth incubated for 18 hrs by two fold broth microdilution assay.
For experiment [9], the system named is Acinetobacter baumannii. The experiment can be described thus: Antibacterial activity against Acinetobacter baumannii assessed as inhibition of bacterial growth incubated for 18 hrs by two fold broth microdilution assay.
For experiment [10], the system named is Pseudomonas aeruginosa. The experiment can be described thus: Antibacterial activity against Pseudomonas aeruginosa ATCC 27853 assessed as inhibition of bacterial growth incubated for 18 hrs by two fold broth microdilution assay.
Experiment [11] relates to Staphylococcus aureus. Nature of the experiment: Antibacterial activity against Staphylococcus aureus ATCC 25923 assessed as inhibition of bacterial growth incubated for 18 hrs by two fold broth microdilution assay.

Structures are written as SMILES. In brackets after ≈: the same amount, converted by molar mass.

Turning to `CC(=O)Nc1ccc(S(=O)(=O)/C(C#N)=C/c2cn(Cc3ccc([N+](=O)[O-])cc3)c3ccccc23)cc1`, the MIC in [1] worked out at 256 µg/mL (≈ 511 µM); in [2], 128 µg/mL (≈ 256 µM); in experiment [3] it was 64 µg/mL (≈ 128 µM); in [4], 16 µg/mL (≈ 32 µM); in [5] it was 256 µg/mL (≈ 511 µM); in experiment [6], 16 µg/mL (≈ 32 µM). The MIC in experiment [7] worked out at 128 µg/mL (≈ 256 µM); in [8], 2 µg/mL (≈ 4 µM); in experiment [9], 64 µg/mL (≈ 128 µM); in [10], 256 µg/mL (≈ 511 µM); in experiment [11], 256 µg/mL (≈ 511 µM).

On to `CC(=O)Nc1ccc(S(=O)(=O)/C(C#N)=C/c2cn(Cc3ccccc3F)c3ccccc23)cc1`, for which the MIC was 128 µg/mL (≈ 270 µM) in experiment [1]; 8 µg/mL (≈ 16.9 µM) in experiment [2]; 64 µg/mL (≈ 135 µM) in experiment [3]; 256 µg/mL (≈ 541 µM) in experiment [4]; 128 µg/mL (≈ 270 µM) in experiment [5]; 256 µg/mL (≈ 541 µM) in [6]. For the same compound, the MIC in [7] was 64 µg/mL (≈ 135 µM); in experiment [8], 4 µg/mL (≈ 8.45 µM); in experiment [9], 16 µg/mL (≈ 33.8 µM); in experiment [10] it was 16 µg/mL (≈ 33.8 µM); in [11] it was 4 µg/mL (≈ 8.45 µM).

As for `CCCCCCCCn1cc(/C=C(\C#N)S(=O)(=O)c2ccc(NC(C)=O)cc2)c2ccccc21`, the MIC was 8 µg/mL (≈ 16.7 µM) in experiment [1]; 16 µg/mL (≈ 33.5 µM) in [2]; 32 µg/mL (≈ 67 µM) in experiment [3]; 4 µg/mL (≈ 8.37 µM) in [4]; 256 µg/mL (≈ 536 µM) in [5]; 256 µg/mL (≈ 536 µM) in [6]. Also, the MIC in experiment [7] is 64 µg/mL (≈ 134 µM); in experiment [8], 16 µg/mL (≈ 33.5 µM); in experiment [9], 8 µg/mL (≈ 16.7 µM); in experiment [10], 16 µg/mL (≈ 33.5 µM); in experiment [11], 4 µg/mL (≈ 8.37 µM).

For `N#C/C(=C\c1cn(Cc2ccccc2Cl)c2ccccc12)S(=O)(=O)c1ccc(N)cc1`, the MIC worked out at 1 µg/mL (≈ 2.23 µM) in experiment [1]; 16 µg/mL (≈ 35.7 µM) in experiment [2]; 64 µg/mL (≈ 143 µM) in experiment [3]; 1 µg/mL (≈ 2.23 µM) in [4]; 32 µg/mL (≈ 71.4 µM) in [5]; 256 µg/mL (≈ 571 µM) in experiment [6]. In addition, the MIC in [7] came to 16 µg/mL (≈ 35.7 µM); in experiment [8], 2 µg/mL (≈ 4.46 µM); in experiment [9], 16 µg/mL (≈ 35.7 µM); in [10] it was 2 µg/mL (≈ 4.46 µM); in experiment [11], 1 µg/mL (≈ 2.23 µM).

Turning to `CC(=O)Nc1ccc(S(=O)(=O)/C(C#N)=C/c2cn(CC3CC3)c3ccccc23)cc1`, the MIC amounted to 256 µg/mL (≈ 610 µM) in experiment [1]; 64 µg/mL (≈ 153 µM) in experiment [2]; 32 µg/mL (≈ 76.3 µM) in experiment [3]; 64 µg/mL (≈ 153 µM) in [4]; 16 µg/mL (≈ 38.1 µM) in experiment [5]; 32 µg/mL (≈ 76.3 µM) in experiment [6]. Moreover, the MIC came out at 32 µg/mL (≈ 76.3 µM) in experiment [7]; 64 µg/mL (≈ 153 µM) in experiment [8]; 16 µg/mL (≈ 38.1 µM) in experiment [9]; 64 µg/mL (≈ 153 µM) in experiment [10]; 64 µg/mL (≈ 153 µM) in experiment [11].

`N#C/C(=C\c1cn(CC2CC2)c2ccccc12)S(=O)(=O)c1ccc(N)cc1`: the MIC in [1] amounted to 32 µg/mL (≈ 84.8 µM); in [2], 128 µg/mL (≈ 339 µM); in experiment [3] it was 16 µg/mL (≈ 42.4 µM); in experiment [4] it was 16 µg/mL (≈ 42.4 µM); in experiment [5] it was 256 µg/mL (≈ 678 µM); in experiment [6], 128 µg/mL (≈ 339 µM). Moreover, the MIC in experiment [7] is 64 µg/mL (≈ 170 µM); in experiment [8] it was 32 µg/mL (≈ 84.8 µM); in experiment [9], 64 µg/mL (≈ 170 µM); in [10], 16 µg/mL (≈ 42.4 µM); in [11], 64 µg/mL (≈ 170 µM).

On to `CC(=O)Nc1ccc(S(=O)(=O)/C(C#N)=C/c2cn(Cc3ccc(Cl)cc3Cl)c3ccccc23)cc1`, for which the minimal inhibitory concentration (MIC) is 16 µg/mL (≈ 30.5 µM) in experiment [1]; 256 µg/mL (≈ 488 µM) in [2]; 64 µg/mL (≈ 122 µM) in experiment [3]; 4 µg/mL (≈ 7.63 µM) in experiment [4]; 256 µg/mL (≈ 488 µM) in experiment [5]; 64 µg/mL (≈ 122 µM) in experiment [6]. The MIC was 64 µg/mL (≈ 122 µM) in experiment [7]; 8 µg/mL (≈ 15.3 µM) in [8]; 8 µg/mL (≈ 15.3 µM) in [9]; 32 µg/mL (≈ 61 µM) in [10]; 64 µg/mL (≈ 122 µM) in experiment [11].

`CCCCCCn1cc(/C=C(\C#N)S(=O)(=O)c2ccc(N)cc2)c2ccccc21`: the MIC was determined as 256 µg/mL (≈ 628 µM) in experiment [1]; 4 µg/mL (≈ 9.82 µM) in experiment [2]; 64 µg/mL (≈ 157 µM) in experiment [3]; 128 µg/mL (≈ 314 µM) in experiment [4]; 8 µg/mL (≈ 19.6 µM) in experiment [5]; 32 µg/mL (≈ 78.5 µM) in [6]. The MIC in experiment [7] is 8 µg/mL (≈ 19.6 µM); in experiment [8], 4 µg/mL (≈ 9.82 µM); in [9] it was 8 µg/mL (≈ 19.6 µM); in experiment [10], 8 µg/mL (≈ 19.6 µM); in experiment [11], 2 µg/mL (≈ 4.91 µM).

`CC(=O)Nc1ccc(S(=O)(=O)/C(C#N)=C/c2cn(Cc3cccc(Cl)c3)c3ccccc23)cc1`: the MIC in [1] worked out at 64 µg/mL (≈ 131 µM); in experiment [2], 256 µg/mL (≈ 522 µM); in experiment [3] it was 4 µg/mL (≈ 8.16 µM); in [4] it was 16 µg/mL (≈ 32.7 µM); in [5] it was 128 µg/mL (≈ 261 µM); in experiment [6], 128 µg/mL (≈ 261 µM). In addition, the MIC in experiment [7] came out at 64 µg/mL (≈ 131 µM); in [8], 8 µg/mL (≈ 16.3 µM); in experiment [9], 64 µg/mL (≈ 131 µM); in experiment [10] it was 64 µg/mL (≈ 131 µM); in experiment [11], 128 µg/mL (≈ 261 µM).

For the compound `CC(=O)Nc1ccc(S(=O)(=O)/C(C#N)=C/c2cn(C(=O)OC(C)(C)C)c3ccccc23)cc1`, the MIC in experiment [1] amounted to 128 µg/mL (≈ 275 µM); in experiment [2] it was 128 µg/mL (≈ 275 µM); in experiment [3], 128 µg/mL (≈ 275 µM); in experiment [4], 128 µg/mL (≈ 275 µM); in [5], 128 µg/mL (≈ 275 µM); in [6], 32 µg/mL (≈ 68.7 µM). For the same compound, the MIC in [7] worked out at 128 µg/mL (≈ 275 µM); in [8], 2 µg/mL (≈ 4.3 µM); in experiment [9], 64 µg/mL (≈ 137 µM); in [10], 128 µg/mL (≈ 275 µM); in [11] it was 128 µg/mL (≈ 275 µM).

A word on the MIC: it is the least concentration at which growth counts as inhibited.
